Tests used:
HmuS [1] = target: T1, HmuS (Bacteroides thetaiotaomicron, UniProt A0A0P0FP54); experiment: cryo-EM structure at […] Å with heme; UV/vis hemin titration (Kd); HPLC turnover to PPIX; format: binding
T1 construct: gene GAN91_17490; soluble HmuS without its predicted N- and C-terminal membrane-anchoring helices
T1 sequence (A0A0P0FP54 28-1433 limits assumed): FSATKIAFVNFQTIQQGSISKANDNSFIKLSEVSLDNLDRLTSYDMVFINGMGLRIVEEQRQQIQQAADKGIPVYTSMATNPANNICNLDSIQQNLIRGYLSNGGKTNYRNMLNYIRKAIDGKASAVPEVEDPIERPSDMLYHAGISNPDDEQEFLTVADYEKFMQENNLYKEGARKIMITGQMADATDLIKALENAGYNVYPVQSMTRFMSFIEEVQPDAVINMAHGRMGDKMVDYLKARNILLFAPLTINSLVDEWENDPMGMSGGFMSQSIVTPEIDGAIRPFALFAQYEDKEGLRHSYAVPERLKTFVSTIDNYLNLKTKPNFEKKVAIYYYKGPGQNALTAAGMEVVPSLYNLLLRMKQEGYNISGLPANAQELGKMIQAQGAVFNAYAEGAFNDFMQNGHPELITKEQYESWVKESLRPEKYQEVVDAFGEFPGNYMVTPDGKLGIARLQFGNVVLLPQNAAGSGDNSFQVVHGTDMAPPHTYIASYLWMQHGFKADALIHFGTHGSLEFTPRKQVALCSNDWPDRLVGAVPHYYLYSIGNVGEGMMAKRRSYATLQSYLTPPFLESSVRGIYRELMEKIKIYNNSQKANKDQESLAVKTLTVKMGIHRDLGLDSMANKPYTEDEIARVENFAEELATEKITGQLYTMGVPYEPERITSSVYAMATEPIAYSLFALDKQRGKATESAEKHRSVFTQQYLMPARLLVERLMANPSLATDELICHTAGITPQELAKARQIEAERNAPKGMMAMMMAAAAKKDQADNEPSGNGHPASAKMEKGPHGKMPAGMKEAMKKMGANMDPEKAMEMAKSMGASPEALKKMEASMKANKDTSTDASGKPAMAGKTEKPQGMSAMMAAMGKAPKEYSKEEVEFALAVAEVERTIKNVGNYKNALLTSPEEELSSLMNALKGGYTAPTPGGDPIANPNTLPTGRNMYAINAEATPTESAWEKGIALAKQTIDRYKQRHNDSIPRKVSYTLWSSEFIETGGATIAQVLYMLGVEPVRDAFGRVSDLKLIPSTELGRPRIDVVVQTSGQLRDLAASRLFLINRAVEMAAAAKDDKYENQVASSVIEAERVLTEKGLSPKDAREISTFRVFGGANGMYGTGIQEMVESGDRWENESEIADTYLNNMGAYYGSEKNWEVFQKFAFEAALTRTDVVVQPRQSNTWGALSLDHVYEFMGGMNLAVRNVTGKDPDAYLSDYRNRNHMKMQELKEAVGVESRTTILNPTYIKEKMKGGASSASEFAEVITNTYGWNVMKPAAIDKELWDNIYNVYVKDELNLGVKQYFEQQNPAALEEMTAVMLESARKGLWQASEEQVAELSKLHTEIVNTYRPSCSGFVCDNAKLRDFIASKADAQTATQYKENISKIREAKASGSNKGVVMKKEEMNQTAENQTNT

HmuS [2] = target: T2, HmuS (Bacteroides thetaiotaomicron, UniProt A0A0P0FP54, H538A); experiment: UV/vis hemin titration of purified mutant; no turnover to PPIX; format: binding
T2 construct: gene GAN91_17490; soluble HmuS without its predicted N- and C-terminal membrane-anchoring helices

C=CC1=C(C)C2=Cc3c(C=C)c(C)c4[n]3[Fe][n]3c(c(C)c(CCC(=O)O)c3=CC3=NC(=C4)C(C)=C3CCC(=O)O)=CC1=N2 [heme]
Kd (HmuS [1]): 6 ± 6 µM
Kd (HmuS [2]): 1.4 ± 0.1 µM

Source: publication PMC12583661, “Commensal gut bacteria employ de-chelatase HmuS to harvest iron from heme” (The EMBO Journal, 2025)
